Assay results: patent publication US6228889A, “Methods for treatment of conditions associated with lactosylceramide” (priority 1999, dated 2001)
Structures can show the parent of a compound that is named as a salt. Where two headings read alike, the source gives them in different places.

Columns and labels:
Mac-1 (CD11b/CD18) = conditions: for Mac-1 expression on PMNs, other GSL: 100 nmol/L, 20 minutes
GalT-2 [1] = test: GalT-2 activity in endothelial cells; assay type: cell-based, human
Procedure: Particularly preferred are GalT-2 assays conducted with the ASMCs and performed in accordance with previously described methods. See e.g., Chatterjee, S., and Castiglione, E. (1987) Biochem. Biophys. Acta, 923:136; and Chatterjee, (1991) S. Biochem. Biophys. Res Comm., 181:554.
Another preferred assay of the invention includes the following steps a) through d):
a) culturing a population of LacCer-responsive cells preferably to confluency in lipoprotein-deficient serum medium, e.g., about 1 mg lipoprotein-deficient serum/protein/ml of medium or less;
b) harvesting the cells preferably in a suitable dispersive buffer, e.g., cacodylate buffer,
c) incubating the harvested cells preferably with a detectably labeled molecule such as a detectably-labeled nucleoside diphosphate sugar donor such as [^14 C]-UDP-galactose typcially in an amount between about 0. 1 to 100 μCi; and
d) measuring LacCer formation as indicative of the activity of the GalT-2 enzyme.

GlcCer, LacCer = test: Glycosphingolipid levels (HPLC) in thoracic aorta of balloon angioplasty rabbits; assay type: in vivo; conditions: rabbit thoracic aorta
Procedure: (§1) Experiments were performed on rabbits to examine the effects of D-PDMP on aortic stenosis following balloon angioplasty. The rabbits were given intramuscular injection of D-PDMP (10 mg/kg) or vehicle 24 hours prior to balloon angioplasty and this regimen was continued for 15 days. Next, the thoracic aorta was harvested, the glycosphingolipids was measured by HPLC analysis, and GalT-2 activity was measured employing assays described above.

GalT-2 [2] = test: GalT-2 activity in thoracic aorta of balloon angioplasty rabbits; assay type: in vivo; conditions: rabbit thoracic aorta; 10 mg/kg intramuscular, 15 days
Procedure: as §1

intimal proliferation = test: Intimal proliferation following balloon angioplasty in rabbits (aorta histology); assay type: in vivo; conditions: rabbit aorta; 10 mg/kg intramuscular daily for six weeks after balloon angioplasty
Excerpt: A rabbit model of restenosis accompanying an invasive surgical procedure such as balloon angioplasty is preferred. One suitable protocol involves administering to the rabbit a suitable vehicle or vehicle combined with one or more GalT-2 inhibitor compounds of interest. The amount of the GalT-2 inhibitor compound administered will vary depending on several parameters including the extent of damage associated with the surgical procedure of interest. In instances where balloon angioplasty is employed, the rabbit will typically receive a candidate GalT-2 inhibitor compound in a dose (e.g., i.m. or i.p.) of between about 0.5 to 100, preferably 1 to 20 and more preferably about 10 mg/kg body weight of the rabbit. A preferred dosage schedule provides for administration of a GalT-2 inhibitor compound starting 24 hurs prior to conducting an invasive surgical procedure, and then continuing administration of the GalT-2 inhibitor compound for 15 days following the surgical procedure. In other protocols, daily injections of the GalT-2 inhibitor compound may be made for about 2 to 12 weeks following the invasive surgical procedure. […] Subsequently, the rabbits are euthanized and a vessel removed for examination, preferably the aorta The vessel is then fixed with formalin and analyzed for proliferation of vascular endothelia, media and advantitia using standard histological procedures. […]

ICAM-1 = conditions: for effect on LacCer mediated stimulation of ICAM-1 expression: 5 μM LacCer 4 hours, DPI 10 μM 30 minutes, NAC 15 mM 30 minutes, PDTC 100 μM 1 hour
GlcT-1 = target: T1, GlcT-1 (Homo sapiens, UniProt Q16739); conditions: reported in literature; cited from earlier work
T1 sequence (Q16739 1-394): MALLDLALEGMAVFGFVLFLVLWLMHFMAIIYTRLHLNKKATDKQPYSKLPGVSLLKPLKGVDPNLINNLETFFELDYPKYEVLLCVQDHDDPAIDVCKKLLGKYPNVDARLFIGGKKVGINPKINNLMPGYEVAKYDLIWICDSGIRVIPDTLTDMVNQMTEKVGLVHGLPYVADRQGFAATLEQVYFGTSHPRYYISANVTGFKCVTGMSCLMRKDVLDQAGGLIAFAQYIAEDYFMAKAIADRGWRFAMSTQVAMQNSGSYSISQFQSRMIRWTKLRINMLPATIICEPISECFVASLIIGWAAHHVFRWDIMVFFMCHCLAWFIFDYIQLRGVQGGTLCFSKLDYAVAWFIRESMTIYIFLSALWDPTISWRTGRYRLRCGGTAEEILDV

vascular cells = conditions: reported in literature; cited from earlier work
Eahy 926 cells = test: Superoxide production by intact Eahy 926 (lucigenin chemiluminescence); assay type: cell-based, human; conditions: 5 μM LacCer; DPI 10 μM 30 minutes, NAC 15 mM 30 minutes, SOD exogenously added (200 U/ml), allopurinol
[3] = tested on: neutrophil adhesion to Eahy 926 cells; test: Confocal microscopic study of adhesion of human neutrophils to Eahy 926 endothelial cells; assay type: cell-based; conditions: endothelial cells preincubated with 10 μM DPI or 15 mM NAC 30 minutes, then 5 μM LacCer 4 hours
PMNs [4] = test: ROM generation by PMNs (DCFH-DA); assay type: cell-based, human; conditions: 100 or 200 nmol/L LacCer
PMNs [5] = test: Superoxide generation in PMNs (lucigenin); assay type: cell-based, human; conditions: SOD 500 U/ml, DPI 10 μM/L, apocyanin 90 μmol/L, about 15 minutes preincubation; 100 nmol LacCer 20 minutes
[6] = tested on: PMN adhesion to unstimulated endothelial cells; test: PMN-endothelial adhesion assay; assay type: cell-based, human; conditions: 100 nmol/L LacCer; anti-CD18 5 μg/ml; quinacrine increasing doses
Procedure: 12. PMN-Endothelial Adhesion Assay. PMNs were labeled fluorescently by incubation with 5 μmol/L Calcein-AM (Molecular Probes) in calcium-free PBS for 20 minutes at 37° C., washed and resuspended in Hanks' balanced salt solution (Gibco) containing 0.2% bovine serum albumin (BSA). These PMNs were then treated with LacCer (or vehicle, 0.05% DMSO), washed 3 times with PBS and then plated on the unstimulated ec monolayers, which had been grown to confluence in 24-well plates. The PMNs (600 μL of 2×10^6 /mL/well) then were incubated with the ecs for 30 minutes at 37° C. Non-adherent PMNs were then removed by gentle washing 3 times with PBS. The residual adherent PMNs (and ecs) were then lysed using 4mmol/L Zwittergent Calbiochem, La Jolla, Calif.) and the plates read on a fluorescence plate reader (Millipore) at EX 480 nm/EM 530 nm. The number of adherent PMNs were expressed as number of PMN/mm^2 ec monolayer, based on the mean fluorescent intensity of each PMN, as determined from a standard curve. 13. Additional Methods. LacCer, ceramide and […] (all from Sigma) were prepared as described in examples below, and used as putative agonists for the stimulation of PMN adhesion molecule expression, assayed by FACScan. […]

[7] = inhibitor 20 minutes, then 100 nmol/L LacCer 20 minutes, BPB 10 μmol/L
[8] = endothelial cells preincubated with D-PDMP
[9] = balloon angioplasty, 10 mg/kg intramuscular from 24 hours prior, continued for 15 days
[10] = endothelial cells, TNF-α as stimulant

CC(=O)OCOC(=O)CN(CC(=O)OCOC(C)=O)c1ccccc1OCCOc1ccccc1N(CC(=O)OCOC(C)=O)CC(=O)OCOC(C)=O [BAPTA/AM]
effect on LacCer-stimulated Mac-1 upregulation on PMNs (Mac-1 (CD11b/CD18); [7]): did not inhibit

CCCCCCCCCC(=O)N[C@H](CN1CCOCC1)[C@H](O)c1ccccc1 [D-PDMP, (1R, 2R)-1-phenyl-2-decanoylamino-3-morpholino-1-propanol]
GalT-2 activity induced by TNF-α (GalT-2 [1]; [8]): concentration-dependent decrease
level of GicCer and LacCer (GlcCer, LacCer; 10 mg/kg intramuscular, 15 days): decrease significantly
GSL Concentration GlcCer (GlcCer, LacCer; [9]): 6 μg/gm wet weight
GSL Concentration LacCer (GlcCer, LacCer; [9]): 10 μg/gm wet weight
decrease of GalT-2 activity versus vehicle (GalT-2 [2]): ~ 1.7 fold
intimal proliferation at the site of balloon angioplasty (intimal proliferation): complete absence of intimal proliferation
ICAM-1 expression induced by TNF-α (ICAM-1; [8]): concentration-dependent decrease
inhibition of GlcT-1 (GlcT-1): inhibits
proliferation of vascular cells (vascular cells): reduces

c1ccc2c(c1)[I+]c1ccccc1-2 [DPI, diphenyleneiodonium chloride]
effect on LacCer induced generation of O2- in endothelial cells (Eahy 926 cells): failed to respond
effect on LacCer-induced neutrophil adhesion [3]: attenuated
effect on neutrophil ROM generation induced by LacCer (PMNs [4]): completely blocked
effect on LacCer induced superoxide generation in PMNs (PMNs [5]): relatively less inhibitory
effect on LacCer mediated stimulation of ICAM-1 expression (ICAM-1): inhibited
effect on NADPH oxidase activity in membrane preparations of LacCer stimulated cells (NADPH oxidase): attenuated
effect on LacCer-stimulated Mac-1 upregulation on PMNs (Mac-1 (CD11b/CD18)): did not inhibit

CC(=O)N[C@@H](CS)C(=O)O [NAC, N-acetylcysteine]
effect on LacCer induced generation of O2- in endothelial cells (Eahy 926 cells): reduced
effect on LacCer-induced neutrophil adhesion [3]: attenuated
effect on neutrophil ROM generation induced by LacCer (PMNs [4]): inhibited
effect on LacCer mediated stimulation of ICAM-1 expression (ICAM-1): inhibited
effect on LacCer-stimulated Mac-1 upregulation on PMNs (Mac-1 (CD11b/CD18); [7]): did not inhibit

S=C(S)N1CCCC1 [PDTC]
effect on LacCer mediated stimulation of ICAM-1 expression (ICAM-1): inhibited

Cc1nnc2n1-c1sc(CCC(=O)N3CCOCC3)cc1C(c1ccccc1Cl)=NC2 [WEB 2086]
effect on LacCer-stimulated Mac-1 upregulation on PMNs (Mac-1 (CD11b/CD18)): No significant inhibition

Oc1ncnc2[nH]ncc12 [allopurinol]
effect on LacCer induced generation of O2- in endothelial cells (Eahy 926 cells): failed to inhibit

COc1cc(C(C)=O)ccc1O [apocyanin]
effect on LacCer induced superoxide generation in PMNs (PMNs [5]): relatively less inhibitory

O=c1c(-c2ccc(O)cc2)coc2cc(O)cc(O)c12 [genistein]
effect on LacCer-stimulated Mac-1 upregulation on PMNs (Mac-1 (CD11b/CD18); [7]): did not inhibit

CCN(CC)CCCC(C)Nc1c2ccc(Cl)cc2nc2ccc(OC)cc12 (centres unmarked) [quinacrine, quinacrine dihydrochloride]
effect on LacCer induced PMN adhesion [6]: inhibited
effect on LacCer-stimulated Mac-1 upregulation on PMNs (Mac-1 (CD11b/CD18); [7]): did block

C=C(C)[C@H]1Cc2c(ccc3c2O[C@@H]2COc4cc(OC)c(OC)cc4[C@@H]2C3=O)O1 [rotenone]
effect on NADPH oxidase activity in membrane preparations of LacCer stimulated cells (NADPH oxidase; DPI 10 μM 30 minutes, rotenone 1 mM): did not inhibit

CN[C@@H]1C[C@H]2O[C@@](C)([C@@H]1OC)n1c3ccccc3c3c4c(c5c6ccccc6n2c5c31)C(=O)NC4 [staurosporine]
effect on LacCer-stimulated Mac-1 upregulation on PMNs (Mac-1 (CD11b/CD18)): did not inhibit

TNF-α
increase in GalT-2 activity (GalT-2 [1]; [10]): 1.7 fold
stimulation of ICAM-1 expression (ICAM-1; [10]): concentration-dependent stimulation

ceramide
Mac-1 expression on PMNs, other GSL (Mac-1 (CD11b/CD18)): did not alter

glucosylceramide [GIcCer]
Mac-1 expression on PMNs, other GSL (Mac-1 (CD11b/CD18)): did not alter
